Some test systems named below: SK-MEL-5 melanoma; UO-31 renal; MOLT-4 leukemia; SK-OV-3 ovarian; HCC-2998 colon; EKVX NSCLC; NCI-H460 lung; SR leukemia; NCI-H522 lung.
What all share (assay): growth of human tumour cells (NCI), 48 h

Several values for one entry are separate records, joined by “and”; a condition that tells them apart may be missing. Equal values may be shown once.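 Assay format: 96-well plates, 48-hour exposure. GI50 marks 50% less growth. Definition used: TGI = concentration required for complete inhibition of growth.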 Some results are limits rather than exact numbers.

For the compound `CC[C@@]1(O)C(=O)OCc2c1cc1n(c2=O)Cc2cc3c(N)c(OC)ccc3nc2-1`, the GI50 with SK-MEL-5 melanoma was 0.0739 µM; in the assay on UO-31 renal, 0.0547 µM; in the assay with MOLT-4 leukemia, < 0.01 µM; in the assay on SK-OV-3 ovarian it was 0.0582 µM; with HCC-2998 colon, 0.155 µM; in the assay with EKVX NSCLC, 0.574 µM. Further, the figures for the GI50 in the assay with NCI-H460 lung, in the assay on SR leukemia and with NCI-H522 lung were 0.013 µM, < 0.01 µM and 0.0434 µM, respectively. Further, the TGI in the assay with SK-MEL-5 melanoma is 0.234 µM; with UO-31 renal, 0.25 µM; in the assay on MOLT-4 leukemia, 0.0711 µM; with SK-OV-3 ovarian it was 2.29 µM; in the assay on HCC-2998 colon, 0.373 µM; with EKVX NSCLC, > 100 µM. Besides, the TGI in the assay on NCI-H460 lung stood at 0.111 µM; with NCI-H522 lung it was 1.31 µM.

For `Cc1ccc(C)c(NC(=O)C(=O)C(C2C(C)CC(=O)C2CC(=O)O)[N+](=O)[O-])c1` (centres undefined), the TGI with SK-MEL-5 melanoma, in the assay on UO-31 renal, with MOLT-4 leukemia, in the assay on SK-OV-3 ovarian, in the assay with HCC-2998 colon and in the assay with EKVX NSCLC was > 100 µM in each case. Besides, the TGI in the assay on NCI-H460 lung and in the assay on SR leukemia was > 100 µM in each case.

Take `O=S(=O)([O-])c1ccc(C=Nc2ccccc2)c([O-])c1.O=S(=O)([O-])c1ccc(C=Nc2ccccc2)c([O-])c1.[Co+2]`: the GI50 was 21 µM with UO-31 renal; 7.71 µM in the assay on MOLT-4 leukemia; > 100 µM with SK-OV-3 ovarian; > 100 µM with HCC-2998 colon; 43.2 µM in the assay with EKVX NSCLC; 24.9 µM in the assay with SR leukemia. Also, the GI50 in the assay on NCI-H522 lung is > 100 µM. Also, the TGI with UO-31 renal, in the assay on MOLT-4 leukemia, with SK-OV-3 ovarian, in the assay with HCC-2998 colon, in the assay on EKVX NSCLC and in the assay with SR leukemia was > 100 µM throughout. The TGI with NCI-H522 lung was > 100 µM.

Turning to `CCCCCCCCCCCCNC(=S)OCCCC`, the TGI was > 100 µM in the assay on SK-MEL-5 melanoma; > 100 µM with UO-31 renal; 52.4 µM with MOLT-4 leukemia; > 100 µM in the assay on SK-OV-3 ovarian; > 100 µM in the assay on HCC-2998 colon; > 100 µM in the assay on EKVX NSCLC. For the same compound, the TGI in the assay with NCI-H460 lung, in the assay on SR leukemia and in the assay with NCI-H522 lung was > 100 µM each time.

With `O=C1c2ccccc2C(=O)N1CCN(CCN1C(=O)c2ccccc2C1=O)Cc1ccccc1`, the TGI with SK-MEL-5 melanoma, in the assay on UO-31 renal, with MOLT-4 leukemia, in the assay with SK-OV-3 ovarian, in the assay with EKVX NSCLC and in the assay on NCI-H460 lung was > 100 µM in each case. For the same compound, the TGI in the assay with SR leukemia and with NCI-H522 lung was > 100 µM each time.

For the compound `CCOC(=O)C(c1ccsc1)P(=O)(OCC)OCC` (centres undefined), the TGI was 29.4 µM in the assay on SK-MEL-5 melanoma; 28.4 µM in the assay on UO-31 renal; > 100 µM in the assay on MOLT-4 leukemia; 77.2 µM in the assay on SK-OV-3 ovarian; 33.8 µM with HCC-2998 colon; 80.1 µM with EKVX NSCLC. Moreover, the TGI in the assay on NCI-H460 lung was 66.4 µM; in the assay with NCI-H522 lung it was 16.9 µM.

As for `NNC(=S)N/N=C(\c1nc2ccc(Cl)cc2[nH]c1=O)C(O)c1cccc([N+](=O)[O-])c1` (centres undefined), the TGI with SK-MEL-5 melanoma, in the assay on UO-31 renal, in the assay on MOLT-4 leukemia, in the assay on SK-OV-3 ovarian, in the assay with HCC-2998 colon and in the assay with EKVX NSCLC was > 100 µM throughout. In addition, the TGI in the assay on NCI-H460 lung was > 100 µM; in the assay with SR leukemia, 33.8 µM; in the assay on NCI-H522 lung, > 100 µM.

Turning to `COC(=O)N1C=CC2=C(C)C3Nc4ccccc4C3C(C)=C2C1` (centres undefined), the TGI in the assay with SK-MEL-5 melanoma is 37.2 µM; in the assay on UO-31 renal it was 3.88 µM; in the assay on MOLT-4 leukemia, 12.3 µM; in the assay with SK-OV-3 ovarian, 8.71 µM; in the assay on HCC-2998 colon, 11.9 µM; with EKVX NSCLC, > 100 µM. Besides, the TGI with NCI-H460 lung was 11.6 µM; with NCI-H522 lung, 10.7 µM.

`COc1ccc(-c2cc(-c3ccco3)c(C#N)c(=O)n2C2OC(COC(C)=O)C(OC(C)=O)C(OC(C)=O)C2OC(C)=O)cc1` (centres undefined): the TGI was > 100 µM in the assay with SK-MEL-5 melanoma; > 100 µM and 51.7 µM in the assay with UO-31 renal; > 100 µM in the assay with MOLT-4 leukemia; > 100 µM and 64.5 µM with SK-OV-3 ovarian; > 100 µM in the assay on HCC-2998 colon; > 100 µM in the assay on EKVX NSCLC. For the same compound, the TGI is > 100 µM and 81 µM in the assay on NCI-H460 lung; > 100 µM in the assay with SR leukemia; > 100 µM and 60.4 µM in the assay on NCI-H522 lung. Also, the GI50 is 40.1 µM and 16.5 µM in the assay with UO-31 renal; > 100 µM and 28.1 µM with SK-OV-3 ovarian; 35.8 µM and 8.76 µM in the assay with NCI-H460 lung; 42.8 µM and 11 µM in the assay with NCI-H522 lung.

Regarding `NC(=O)c1c(NC(=O)c2ccc(C(F)(F)F)cc2Cl)sc2c1CCC(=O)C2`, the GI50 with SK-MEL-5 melanoma is 0.684 µM; with UO-31 renal it was 0.237 µM; with MOLT-4 leukemia it was 0.361 µM; in the assay on SK-OV-3 ovarian it was 2.47 µM; in the assay with EKVX NSCLC, 1.62 µM; in the assay on NCI-H460 lung, 1.29 µM. Further, the GI50 is 0.305 µM in the assay on SR leukemia and 0.186 µM with NCI-H522 lung. Moreover, the TGI with SK-MEL-5 melanoma was 2.08 µM; with UO-31 renal it was 0.809 µM; in the assay with MOLT-4 leukemia, > 100 µM; in the assay on SK-OV-3 ovarian, 7.56 µM; in the assay on HCC-2998 colon, 3.36 µM; in the assay on EKVX NSCLC it was 4.93 µM. Besides, the TGI with NCI-H460 lung was 9.48 µM; in the assay on SR leukemia, > 100 µM; in the assay with NCI-H522 lung, 0.844 µM.

For `Cc1ccccc1-c1cc(=O)c2cc(C)c(C)c(C(=O)O)c2o1`, the TGI in the assay on SK-MEL-5 melanoma, with UO-31 renal, in the assay on MOLT-4 leukemia, with SK-OV-3 ovarian, in the assay with HCC-2998 colon and in the assay with EKVX NSCLC was > 100 µM each time. Further, the TGI with NCI-H460 lung, in the assay with SR leukemia and in the assay with NCI-H522 lung was > 100 µM in each case.

Turning to `Nc1ncnc2c1ncn2C1(CO)OC(CO)C(O)C1O` (centres undefined), the TGI in the assay on SK-MEL-5 melanoma, in the assay on MOLT-4 leukemia, in the assay with SK-OV-3 ovarian, in the assay with HCC-2998 colon, with NCI-H460 lung and with SR leukemia was > 100 µM throughout. Also, in the assay with NCI-H522 lung, the TGI was > 100 µM.

In the case of `O=C1C=C(c2ccccc2)NC1(c1ccccc1)c1cc(-c2ccccc2)[nH]c1-c1ccccc1` (centres undefined), the TGI in the assay with UO-31 renal, with MOLT-4 leukemia, in the assay on SK-OV-3 ovarian, in the assay with HCC-2998 colon, in the assay with EKVX NSCLC and in the assay on NCI-H460 lung was > 100 µM throughout. In addition, in the assay with SR leukemia, the TGI was > 100 µM.

(Values after PubChem BioAssay (NCI).)
